#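 Interpolation was linear, between the two tested concentrations surrounding the appropriate level; five concentrations were tested over 48 hours in 96-well plates. TGI is the concentration that stops growth completely.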
# What was measured:
# Assay in all cases: NCI anticancer screen, dose series, 48 h
# [1] = tested on: 786-0 renal
# [2] = tested on: A498 renal
# [3] = tested on: ACHN renal
# [4] = tested on: BT-549 breast
# [5] = tested on: CCRF-CEM leukemia
# [6] = tested on: COLO 205 colon
# [7] = tested on: HCC-2998 colon
# [8] = tested on: HCT-116 colon
# [9] = tested on: HCT-15 colon
# [10] = tested on: HL-60(TB) leukemia
# [11] = tested on: HOP-92 NSCLC
# [12] = tested on: HS 578T breast
# [13] = tested on: IGROV1 ovarian
# [14] = tested on: K-562 leukemia
# [15] = tested on: LOX IMVI melanoma
# [16] = tested on: MALME-3M melanoma
# [17] = tested on: MCF7 breast
# [18] = tested on: MDA-MB-231 breast
# [19] = tested on: MDA-N
# [20] = tested on: MOLT-4 leukemia
# [21] = tested on: NCI-H226 lung
# [22] = tested on: NCI-H23 lung
# [23] = tested on: NCI-H460 lung
# [24] = tested on: NCI-H522 lung
# [25] = tested on: NCI/ADR-RES ovarian
# [26] = tested on: OVCAR-8 ovarian
# [27] = tested on: PC-3 prostate
# [28] = tested on: RPMI-8226 leukemia
# [29] = tested on: SF-268 CNS
# [30] = tested on: SF-539 CNS
# [31] = tested on: SK-MEL-2 melanoma
# [32] = tested on: SK-MEL-28 melanoma
# [33] = tested on: SK-MEL-5 melanoma
# [34] = tested on: SN12C renal
# [35] = tested on: SR leukemia
# [36] = tested on: SW-620 colon
# [37] = tested on: TK-10 renal
# [38] = tested on: U251 CNS
# [39] = tested on: UACC-257 melanoma
# [40] = tested on: UACC-62 melanoma
# [41] = tested on: A549 NSCLC
# [42] = tested on: CAKI-1 renal
# [43] = tested on: DU-145 prostate
# [44] = tested on: EKVX NSCLC
# [45] = tested on: HOP-62 NSCLC
# [46] = tested on: HT29 colon
# [47] = tested on: KM12 colon
# [48] = tested on: M14 melanoma
# [49] = tested on: MDA-MB-435
# [50] = tested on: OVCAR-3 ovarian
# [51] = tested on: OVCAR-4 ovarian
# [52] = tested on: RXF 393 renal
# [53] = tested on: SF-295 CNS
# [54] = tested on: SNB-19 CNS
# [55] = tested on: SNB-75 CNS
# [56] = tested on: UO-31 renal
# [57] = tested on: OVCAR-5 ovarian
# [58] = tested on: SK-OV-3 ovarian
# [59] = tested on: T-47D breast
compound,measurement,setting,value
Nc1c2c(nc3ccccc13)-c1ccccc1CC2,TGI,[1],14.1 µM
same,TGI,[2],16.2 µM
same,TGI,[3],14.1 µM
same,TGI,[4],27 µM
same,TGI,[5],18.9 µM
same,TGI,[6],15.8 µM
same,TGI,[7],2.81 µM
same,TGI,[8],13.5 µM
same,TGI,[9],17.5 µM
same,TGI,[10],14.5 µM
same,TGI,[11],21.9 µM
same,TGI,[12],40.5 µM
same,TGI,[13],19.8 µM
same,TGI,[14],17.3 µM
same,TGI,[15],15.5 µM
same,TGI,[16],20.8 µM
same,TGI,[17],13.8 µM
same,TGI,[18],17.8 µM
same,TGI,[19],16 µM
same,TGI,[20],9.23 µM
same,TGI,[21],31.5 µM
same,TGI,[22],27.2 µM
same,TGI,[23],6.22 µM
same,TGI,[24],24.5 µM
same,TGI,[25],27.8 µM
same,TGI,[26],18 µM
same,TGI,[27],14.4 µM
same,TGI,[28],21.7 µM
same,TGI,[29],22.3 µM
same,TGI,[30],15.1 µM
same,TGI,[31],23 µM
same,TGI,[32],22.8 µM
same,TGI,[33],15.3 µM
same,TGI,[34],16.9 µM
same,TGI,[35],9.31 µM
same,TGI,[36],14.8 µM
same,TGI,[37],14.7 µM
same,TGI,[38],15.8 µM
same,TGI,[39],9.09 µM
same,TGI,[40],21.4 µM
COc1ccc(-c2cc(O)c3nc4ccccc4n3c2)cc1,TGI,[1],> 100 µM
same,TGI,[2],> 100 µM
same,TGI,[41],> 100 µM
same,TGI,[4],> 100 µM
same,TGI,[42],> 100 µM
same,TGI,[5],> 100 µM
same,TGI,[6],> 100 µM
same,TGI,[43],> 100 µM
same,TGI,[44],> 100 µM
same,TGI,[8],> 100 µM
same,TGI,[9],> 100 µM
same,TGI,[10],> 100 µM
same,TGI,[45],> 100 µM
same,TGI,[11],> 100 µM
same,TGI,[12],> 100 µM
same,TGI,[46],> 100 µM
same,TGI,[13],> 100 µM
same,TGI,[14],> 100 µM
same,TGI,[47],> 100 µM
same,TGI,[15],> 100 µM
same,TGI,[48],> 100 µM
same,TGI,[16],> 100 µM
same,TGI,[17],> 100 µM
same,TGI,[18],> 100 µM
same,TGI,[49],> 100 µM
same,TGI,[19],> 100 µM
same,TGI,[20],> 100 µM
same,TGI,[21],> 100 µM
same,TGI,[22],> 100 µM
same,TGI,[23],> 100 µM
same,TGI,[24],> 100 µM
same,TGI,[25],> 100 µM
same,TGI,[50],> 100 µM
same,TGI,[51],> 100 µM
same,TGI,[26],> 100 µM
same,TGI,[27],> 100 µM
same,TGI,[28],> 100 µM
same,TGI,[52],> 100 µM
same,TGI,[29],> 100 µM
same,TGI,[53],> 100 µM
same,TGI,[30],> 100 µM
same,TGI,[32],> 100 µM
same,TGI,[34],> 100 µM
same,TGI,[54],> 100 µM
same,TGI,[55],> 100 µM
same,TGI,[35],> 100 µM
same,TGI,[36],> 100 µM
same,TGI,[37],> 100 µM
same,TGI,[38],> 100 µM
same,TGI,[39],> 100 µM
same,TGI,[40],> 100 µM
same,TGI,[56],> 100 µM
Cc1n[nH]c(=O)n1/N=C/c1ccc(Cl)cc1,TGI,[1],> 100 µM
same,TGI,[2],> 100 µM
same,TGI,[41],> 100 µM
same,TGI,[3],> 100 µM
same,TGI,[4],> 100 µM
same,TGI,[42],> 100 µM
same,TGI,[5],94.8 µM
same,TGI,[6],> 100 µM
same,TGI,[43],> 100 µM
same,TGI,[44],72.5 µM
same,TGI,[7],> 100 µM
same,TGI,[8],> 100 µM
same,TGI,[9],> 100 µM
same,TGI,[45],> 100 µM
same,TGI,[11],> 100 µM
same,TGI,[14],> 100 µM
same,TGI,[47],> 100 µM
same,TGI,[48],> 100 µM
same,TGI,[49],> 100 µM
same,TGI,[19],> 100 µM
same,TGI,[20],> 100 µM
same,TGI,[22],> 100 µM
same,TGI,[23],> 100 µM
same,TGI,[24],> 100 µM
same,TGI,[25],> 100 µM
same,TGI,[50],> 100 µM
same,TGI,[51],> 100 µM
same,TGI,[57],> 100 µM
same,TGI,[26],> 100 µM
same,TGI,[28],> 100 µM
same,TGI,[52],72.3 µM
same,TGI,[29],> 100 µM
same,TGI,[53],> 100 µM
same,TGI,[30],> 100 µM
same,TGI,[32],> 100 µM
same,TGI,[58],> 100 µM
same,TGI,[34],> 100 µM
same,TGI,[54],> 100 µM
same,TGI,[55],> 100 µM
same,TGI,[35],> 100 µM
same,TGI,[36],> 100 µM
same,TGI,[59],> 100 µM
same,TGI,[39],> 100 µM
same,TGI,[40],> 100 µM
same,TGI,[56],> 100 µM
